Measured values taken from PubChem BioAssay AID1963423 (Molecular Pharmacology Branch, DTP, NCI, 2024).

Tested on: 439559-082-T-J2-PDC complex spheroid growth
Test: Anticancer human tumor 439559-082-T-J2-PDC patient-derived colon adenocarcinoma cell line growth inhibition [Asc]
Conditions: for IC50: curve of first compound; for viability, T/C: stronger effect = lower value
Procedure, shortened: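 Tumor cells were grown as complex spheroids with human endothelial cells (HUVEC) and human mesenchymal stem cells as stroma. Agents were tested alone and in combination, in half-log steps down from the clinical Cmax, or from 10 microM where Cmax was unknown.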

[1] = second compound 0.1 µM, first compound 0.0316 µM
[2] = second compound 0.1 µM, first compound 0.1 µM
[3] = second compound 0.1 µM, first compound 0.316 µM
[4] = second compound 0.1 µM, first compound 1 µM
[5] = second compound 0.1 µM, first compound 3.16 µM
[6] = second compound 0.1 µM, first compound 10 µM
[7] = second compound 0.316 µM, first compound 0.0316 µM
[8] = second compound 0.316 µM, first compound 0.1 µM
[9] = second compound 0.316 µM, first compound 0.316 µM
[10] = second compound 0.316 µM, first compound 1 µM
[11] = second compound 0.316 µM, first compound 3.16 µM
[12] = second compound 0.316 µM, first compound 10 µM
[13] = second compound 1 µM, first compound 0.0316 µM
[14] = second compound 1 µM, first compound 0.1 µM
[15] = second compound 1 µM, first compound 0.316 µM
[16] = second compound 1 µM, first compound 1 µM
[17] = second compound 1 µM, first compound 3.16 µM
[18] = second compound 1 µM, first compound 10 µM
[19] = second compound 3.16 µM, first compound 0.0316 µM
[20] = second compound 3.16 µM, first compound 0.1 µM
[21] = second compound 3.16 µM, first compound 0.316 µM
[22] = second compound 3.16 µM, first compound 1 µM
[23] = second compound 3.16 µM, first compound 3.16 µM
[24] = second compound 3.16 µM, first compound 10 µM
[25] = second compound 10 µM, first compound 0.0316 µM
[26] = second compound 10 µM, first compound 0.1 µM
[27] = second compound 10 µM, first compound 0.316 µM
[28] = second compound 10 µM, first compound 1 µM
[29] = second compound 10 µM, first compound 3.16 µM
[30] = second compound 10 µM, first compound 10 µM
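Note: spheroids exposed to agents for 7 days starting day 3 after seeding.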
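Throughout, for viability, T/C: percent of DMSO vehicle control viability with 100% = vehicle.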

`C#Cc1c(F)ccc2cc(O)cc(-c3ncc4c(N5CC6CCC(C5)N6)nc(OCC56CCCN5CC(F)C6)nc4c3F)c12` (stereo not given) + Cc1c(S(C)(=O)=O)c(-c2cc(F)cc(N3CCN(c4ccc(NS(=O)(=O)c5ccc(NC(CCN6CCC(C(=O)OCCCP(=O)(O)O)CC6)CSc6ccccc6)c(S(=O)(=O)C(F)(F)F)c5)cc4)CC3)c2)c(-c2ccc(Cl)cc2)n1C(C)C gave an IC50 (second compound 0.1 µM) of 833 nM, an IC50 (second compound 0.316 µM) of 620 nM and an IC50 (second compound 1 µM) of 679 nM. The IC50 (second compound 3.16 µM) was 188 nM, the IC50 (second compound 10 µM) was 55.5 nM and the viability, T/C [1] was 78.3%. It also gave a viability, T/C [2] of 77.3%, a viability, T/C [3] of 61.7% and a viability, T/C [4] of 47%. For the same molecule, the viability, T/C [5] was 46.3%, the viability, T/C [6] was 37.1% and the viability, T/C [7] was 79%. The viability, T/C [8] was 75.1%, the viability, T/C [9] was 57.5% and the viability, T/C [10] was 43%. For the same molecule, the viability, T/C [11] was 40.9%, the viability, T/C [12] was 31.6% and the viability, T/C [13] was 72.6%. The viability, T/C [14] was 66.4%, the viability, T/C [15] was 55.1% and the viability, T/C [16] was 44.1%. The viability, T/C [17] was 41.9%, the viability, T/C [18] was 27.4% and the viability, T/C [19] was 67.2%. The viability, T/C [20] was 55%, the viability, T/C [21] was 45.6% and the viability, T/C [22] was 34.6%. For the same molecule, the viability, T/C [23] was 32.7%, the viability, T/C [24] was 22.5% and the viability, T/C [25] was 56.7%. It also gave a viability, T/C [26] of 41.2%, a viability, T/C [27] of 36.5% and a viability, T/C [28] of 24.4%. The viability, T/C [29] was 19.3% and the viability, T/C [30] was 14.9%.
`C=C(F)C(=O)N1CCN(c2nc(OCC3CCCN3C)nc3c2CCN(c2cccc4cccc(Cl)c24)C3)CC1CC#N` (stereo not given) + Cc1c(S(C)(=O)=O)c(-c2cc(F)cc(N3CCN(c4ccc(NS(=O)(=O)c5ccc(NC(CCN6CCC(C(=O)OCCCP(=O)(O)O)CC6)CSc6ccccc6)c(S(=O)(=O)C(F)(F)F)c5)cc4)CC3)c2)c(-c2ccc(Cl)cc2)n1C(C)C was tested, and the IC50 (second compound 0.1 µM) was 5150 nM, the IC50 (second compound 0.316 µM) was 4170 nM and the IC50 (second compound 1 µM) was 4170 nM. It also gave an IC50 (second compound 3.16 µM) of 3170 nM, an IC50 (second compound 10 µM) of 2780 nM and a viability, T/C [1] of 96.8%. The viability, T/C [2] was 107%, the viability, T/C [3] was 95% and the viability, T/C [4] was 88.6%. It also gave a viability, T/C [5] of 78.4%, a viability, T/C [6] of 14.2% and a viability, T/C [7] of 95.3%. The viability, T/C [8] was 106%, the viability, T/C [9] was 98.5% and the viability, T/C [10] was 77.7%. For the same molecule, the viability, T/C [11] was 69.2%, the viability, T/C [12] was 4.6% and the viability, T/C [13] was 95.8%. It also gave a viability, T/C [14] of 94.5%, a viability, T/C [15] of 103% and a viability, T/C [16] of 84.5%. For the same molecule, the viability, T/C [17] was 66.6%, the viability, T/C [18] was 0.51% and the viability, T/C [19] was 79.1%. For the same molecule, the viability, T/C [20] was 95.3%, the viability, T/C [21] was 93.4% and the viability, T/C [22] was 71.7%. For the same molecule, the viability, T/C [23] was 51.6%, the viability, T/C [24] was 0.43% and the viability, T/C [25] was 68%. For the same molecule, the viability, T/C [26] was 85.8%, the viability, T/C [27] was 86.3% and the viability, T/C [28] was 65.8%. For the same molecule, the viability, T/C [29] was 48.5% and the viability, T/C [30] was 2.9%.
`CCN1C(C(=O)NC23CCC(C(=O)O)(CC2)CC3)C(c2cccc(Cl)c2F)C2(C(=O)Nc3cc(Cl)ccc32)C12CCCCC2` (stereo not given) + Cc1c(S(C)(=O)=O)c(-c2cc(F)cc(N3CCN(c4ccc(NS(=O)(=O)c5ccc(NC(CCN6CCC(C(=O)OCCCP(=O)(O)O)CC6)CSc6ccccc6)c(S(=O)(=O)C(F)(F)F)c5)cc4)CC3)c2)c(-c2ccc(Cl)cc2)n1C(C)C showed an IC50 (second compound 0.1 µM) greater than 3000 nM, an IC50 (second compound 0.316 µM) greater than 3000 nM and an IC50 (second compound 1 µM) greater than 3000 nM. For the same molecule, the IC50 (second compound 3.16 µM) was greater than 3000 nM, the IC50 (second compound 10 µM) was greater than 3000 nM and the viability, T/C (second compound 0.1 µM, first compound 0.00949 µM) was 96.8%. It also gave a viability, T/C (second compound 0.1 µM, first compound 0.03 µM) of 104%, a viability, T/C (second compound 0.1 µM, first compound 0.0949 µM) of 102% and a viability, T/C (second compound 0.1 µM, first compound 0.3 µM) of 98.6%. The viability, T/C (second compound 0.1 µM, first compound 0.949 µM) was 95.4%, the viability, T/C (second compound 0.1 µM, first compound 3 µM) was 93.1% and the viability, T/C (second compound 0.316 µM, first compound 0.00949 µM) was 103%. The viability, T/C (second compound 0.316 µM, first compound 0.03 µM) was 104%, the viability, T/C (second compound 0.316 µM, first compound 0.0949 µM) was 102% and the viability, T/C (second compound 0.316 µM, first compound 0.3 µM) was 87.8%. It also gave a viability, T/C (second compound 0.316 µM, first compound 0.949 µM) of 97.9%, a viability, T/C (second compound 0.316 µM, first compound 3 µM) of 86.2% and a viability, T/C (second compound 1 µM, first compound 0.00949 µM) of 90.8%. The viability, T/C (second compound 1 µM, first compound 0.03 µM) was 97%, the viability, T/C (second compound 1 µM, first compound 0.0949 µM) was 99.7% and the viability, T/C (second compound 1 µM, first compound 0.3 µM) was 84.5%. For the same molecule, the viability, T/C (second compound 1 µM, first compound 0.949 µM) was 88.5%, the viability, T/C (second compound 1 µM, first compound 3 µM) was 79.3% and the viability, T/C (second compound 3.16 µM, first compound 0.00949 µM) was 81.5%. The viability, T/C (second compound 3.16 µM, first compound 0.03 µM) was 92%, the viability, T/C (second compound 3.16 µM, first compound 0.0949 µM) was 91.4% and the viability, T/C (second compound 3.16 µM, first compound 0.3 µM) was 89%. The viability, T/C (second compound 3.16 µM, first compound 0.949 µM) was 82%, the viability, T/C (second compound 3.16 µM, first compound 3 µM) was 67.8% and the viability, T/C (second compound 10 µM, first compound 0.00949 µM) was 69.9%. For the same molecule, the viability, T/C (second compound 10 µM, first compound 0.03 µM) was 77.7%, the viability, T/C (second compound 10 µM, first compound 0.0949 µM) was 74.3% and the viability, T/C (second compound 10 µM, first compound 0.3 µM) was 69.5%. For the same molecule, the viability, T/C (second compound 10 µM, first compound 0.949 µM) was 74.1% and the viability, T/C (second compound 10 µM, first compound 3 µM) was 57.3%.
Molecule `CNC(C)C(=O)NC1CN(S(=O)(=O)c2cccc(S(=O)(=O)N3CCC4CCC(C(=O)NC(c5ccccc5)c5ccccc5)N4C(=O)C(NC(=O)C(C)NC)C3)c2)CCC2CCC(C(=O)NC(c3ccccc3)c3ccccc3)N2C1=O` (stereo not given) + Cc1c(S(C)(=O)=O)c(-c2cc(F)cc(N3CCN(c4ccc(NS(=O)(=O)c5ccc(NC(CCN6CCC(C(=O)OCCCP(=O)(O)O)CC6)CSc6ccccc6)c(S(=O)(=O)C(F)(F)F)c5)cc4)CC3)c2)c(-c2ccc(Cl)cc2)n1C(C)C has an IC50 (second compound 0.1 µM) greater than 1000 nM, an IC50 (second compound 0.316 µM) greater than 1000 nM and an IC50 (second compound 1 µM) greater than 1000 nM. It also gave an IC50 (second compound 3.16 µM) greater than 1000 nM, an IC50 (second compound 10 µM) greater than 1000 nM and a viability, T/C (second compound 0.1 µM, first compound 0.00316 µM) of 102%. It also gave a viability, T/C (second compound 0.1 µM, first compound 0.01 µM) of 111%, a viability, T/C [1] of 110% and a viability, T/C [2] of 88.2%. For the same molecule, the viability, T/C [3] was 88%, the viability, T/C [4] was 86.3% and the viability, T/C (second compound 0.316 µM, first compound 0.00316 µM) was 97.9%. It also gave a viability, T/C (second compound 0.316 µM, first compound 0.01 µM) of 105%, a viability, T/C [7] of 108% and a viability, T/C [8] of 85%. For the same molecule, the viability, T/C [9] was 83%, the viability, T/C [10] was 79.8% and the viability, T/C (second compound 1 µM, first compound 0.00316 µM) was 97.5%. The viability, T/C (second compound 1 µM, first compound 0.01 µM) was 103%, the viability, T/C [13] was 104% and the viability, T/C [14] was 87.1%. The viability, T/C [15] was 93.9%, the viability, T/C [16] was 80% and the viability, T/C (second compound 3.16 µM, first compound 0.00316 µM) was 91.2%. It also gave a viability, T/C (second compound 3.16 µM, first compound 0.01 µM) of 99.2%, a viability, T/C [19] of 102% and a viability, T/C [20] of 71%. For the same molecule, the viability, T/C [21] was 84%, the viability, T/C [22] was 69.7% and the viability, T/C (second compound 10 µM, first compound 0.00316 µM) was 75.5%. It also gave a viability, T/C (second compound 10 µM, first compound 0.01 µM) of 80.4%, a viability, T/C [25] of 90.6% and a viability, T/C [26] of 72.8%. The viability, T/C [27] was 64.7% and the viability, T/C [28] was 66.1%.
